Test results reported in patent publication EP0089426A1, “2-Amino-6-biphenylacetic acids” (A.H. ROBINS COMPANY, INCORPORATED, priority 1982, dated 1983).

Experiment: loss of righting test (muscle relaxant activity)
Format: in vivo

Compound: Nc1cccc(-c2ccccc2)c1CC(=O)O [Example 6-phenyl]
- Percent loss of Righting reflex (Dose 50 mg/kg): 0%
- Percent loss of Righting reflex (Dose 100 mg/kg): 100%
